The test system of this assay is HT29 human colorectal adenocarcinoma cell line. Put plainly: cell proliferation assay (Cell Titer-Glo luminescent cell viability assay). It counts as cell-based. Conditions: read-out: pIC50 (converted). The method in brief:
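Cells grown in DMEM with 10% FBS and exposed to compounds for 72 h. Viability read by CellTiter-Glo luminescence, expressed as percentage of DMSO-treated cells.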
Background: Cellular ATP, detected with luciferase, serves as a proxy for viable cell number.

Where [1] appears, read: HT-29, cell proliferative assay, HT29 cells, 72 hr treatment, values given as ranges.

Data on 26 compounds can be found in patent publication US20090291938A1 (TAKEDA PHARMACEUTICAL COMPANY LIMITED, priority 2007, published 2009).

Read-outs that look alike come from different tables or passages of the source.

As to `COc1cc(C(=O)NCCN(C)C)ccc1Nc1ncc2c(n1)N(C1CCCC1)CC(C)(C)C(=O)N2C` [Compound 92, 4-(9-cyclopentyl-5,7,7-trimethyl-6-oxo-6,7,8,9-tetrahydro-5H-pyrimido[4,5-b][1,4]diazepin-2-ylamino)-N-(2-(dimethylamino)ethyl)-3-methoxybenzamide], under setting [1], the IC50 is 3.16 to 10 nM.

For `CC[C@@]1(C)CN(C2CCCC2)c2nc(Nc3ccc(C(=O)NN4CCN(C)CC4)cc3OC)ncc2N(C)C1=O` [Compound 133, (S)-4-(9-cyclopentyl-7-ethyl-5,7-dimethyl-6-oxo-6,7,8,9-tetrahydro-5H-pyrimido[4,5-b][1,4]diazepin-2-ylamino)-3-methoxy-N-(4-methylpiperazin-1-yl)benzamide], the IC50 under setting [1] is more than 10 nM.

In the case of `COc1cc(C(=O)N[C@@H]2CCCNC2)ccc1Nc1ncc2c(n1)N(C1CCCC1)CCC(=O)N2C` [Compound 49, (R)-4-(9-cyclopentyl-5-methyl-6-oxo-6,7,8,9-tetrahydro-5H-pyrimido[4,5-b][1,4]diazepin-2-ylamino)-3-methoxy-N-(piperidin-3-yl)benzamide], under setting [1], the IC50 is more than 10 nM.

As to `C=C[C@@]1(C)CN(C2CCCC2)c2nc(Nc3ccc(C(=O)NC4CCN(C)CC4)cc3OC)ncc2N(C)C1=O` [Compound 241, (S)-4-(9-cyclopentyl-5,7-dimethyl-6-oxo-7-vinyl-6,7,8,9-tetrahydro-5H-pyrimido[4,5-b][1,4]diazepin-2-ylamino)-3-methoxy-N-(1-methylpiperidin-4-yl)benzamide], the IC50 under setting [1] was more than 10 nM.

In the case of `COc1cc(C(=O)NC2CCN(C)CC2)ccc1Nc1ncc2c(n1)N(C1CCCC1)CC(C)(C)C(=O)N2C` [Compound 86, 4-(9-cyclopentyl-5,7,7-trimethyl-6-oxo-6,7,8,9-tetrahydro-5H-pyrimido[4,5-b][1,4]diazepin-2-ylamino)-3-methoxy-N-(1-methylpiperidin-4-yl)benzamide], the IC50 (HT-29, 72 h) was 3.16 to 10 nM.

Take `COc1cc(C(=O)NC2CN(C)C2)ccc1Nc1ncc2c(n1)N(C1CCCC1)CC1(CC1)C(=O)N2C` [Compound 163, 4-(9′-cyclopentyl-5′-methyl-6′-oxo-5′,6′,8′,9′-tetrahydrospiro[cyclopropane-1,7′-pyrimido[4,5-b][1,4]diazepine]-2′-ylamino)-3-methoxy-N-(1-methylazetidin-3-yl)benzamide]: the IC50 under setting [1] was 1 to 2.51 nM.

Regarding `COc1cc(C(=O)NC2CCN(C)CC2)ccc1Nc1ncc2c(n1)N(C1CCC1)CC(C)(C)C(=O)N2C` [Compound 153, 4-(9-cyclobutyl-5,7,7-trimethyl-6-oxo-6,7,8,9-tetrahydro-5H-pyrimido[4,5-b][1,4]diazepin-2-ylamino)-3-methoxy-N-(1-methylpiperidin-4-yl)benzamide], the IC50 under setting [1] is 3.16 to 10 nM.

Consider `COc1cc(C(=O)NN2CCN(C)CC2)ccc1Nc1ncc2c(n1)N(C1CCCC1)CC1(CC1)C(=O)N2C` [Compound 168, 4-(9′-cyclopentyl-5′-methyl-6′-oxo-5′,6′,8′,9′-tetrahydrospiro[cyclopropane-1,7′-pyrimido[4,5-b][1,4]diazepine]-2′-ylamino)-3-methoxy-N-(4-methylpiperazin-1-yl)benzamide], for which the IC50 under setting [1] was 1 to 2.51 nM.

Regarding `CCN1CCC(NC(=O)c2ccc(Nc3ncc4c(n3)N(C3CCCCC3)CC3(CC3)C(=O)N4C)c(OC)c2)CC1` [Compound 176, 4-(9′-cyclohexyl-5′-methyl-6′-oxo-5′,6′,8′,9′-tetrahydrospiro[cyclopropane-1,7′-pyrimido[4,5-b][1,4]diazepine]-2′-ylamino)-N-(1-ethylpiperidin-4-yl)-3-methoxybenzamide], under setting [1], the IC50 is more than 10 nM.

On to `CC[C@@]1(C)CN(C2CCCCC2)c2nc(Nc3ccc(C(=O)N[C@@H]4CCCNC4)cc3OC)ncc2N(C)C1=O` [Compound 148, 4-((S)-9-cyclohexyl-7-ethyl-5,7-dimethyl-6-oxo-6,7,8,9-tetrahydro-5H-pyrimido[4,5-b][1,4]diazepin-2-ylamino)-3-methoxy-N-((R)-piperidin-3-yl)benzamide], for which the IC50 under setting [1] was 3.16 to 10 nM.

On to `COc1cc(C(=O)NCCCN2CCCC2=O)ccc1Nc1ncc2c(n1)N(C1CCCC1)CCC(=O)N2C` [Compound 38, 4-(9-cyclopentyl-5-methyl-6-oxo-6,7,8,9-tetrahydro-5H-pyrimido[4,5-b][1,4]diazepin-2-ylamino)-3-methoxy-N-(3-(2-oxopyrrolidin-1-yl)propyl)benzamide], for which the IC50 under setting [1] is 3.16 to 10 nM.

On to `C=CC[C@H]1CN(C2CCCC2)c2nc(Nc3ccc(C(=O)N[C@H]4CCCNC4)cc3OC)ncc2N(C)C1=O` [Compound 201, 4-((S)-7-allyl-9-cyclopentyl-5-methyl-6-oxo-6,7,8,9-tetrahydro-5H-pyrimido[4,5-b][1,4]diazepin-2-ylamino)-3-methoxy-N-((S)-piperidin-3-yl)benzamide], for which the IC50 under setting [1] is 1 to 2.51 nM.

As for `COc1cc(C(=O)N[C@@H]2CCCN(C)C2)ccc1Nc1ncc2c(n1)N(C1CCCC1)CC(C)(C)C(=O)N2C` [Compound 98, (R)-4-(9-cyclopentyl-5,7,7-trimethyl-6-oxo-6,7,8,9-tetrahydro-5H-pyrimido[4,5-b][1,4]diazepin-2-ylamino)-3-methoxy-N-(1-methylpiperidin-3-yl)benzamide], under setting [1], the IC50 was 1 to 2.51 nM.

As to `C=CC[C@H]1CN(C2CCCC2)c2nc(Nc3ccc(C(=O)NN4CCN(C)CC4)cc3OC)ncc2N(C)C1=O` [Compound 206, (S)-4-(7-allyl-9-cyclopentyl-5-methyl-6-oxo-6,7,8,9-tetrahydro-5H-pyrimido[4,5-b][1,4]diazepin-2-ylamino)-3-methoxy-N-(4-methylpiperazin-1-yl)benzamide], the IC50 under setting [1] is less than 1 nM.

In the case of `COc1cc(C(=O)N[C@H]2CCCN(C)C2)ccc1Nc1ncc2c(n1)N(C1CCCCC1)CC1(CC1)C(=O)N2C` [Compound 171, (S)-4-(9′-cyclohexyl-5′-methyl-6′-oxo-5′,6′,8′,9′-tetrahydrospiro[cyclopropane-1,7′-pyrimido[4,5-b][1,4]diazepine]-2′-ylamino)-3-methoxy-N-(1-methylpiperidin-3-yl)-benzamide], the IC50 under setting [1] was less than 1 nM.

As to `COc1cc(C(=O)NC2CN(C)C2)ccc1Nc1ncc2c(n1)N(C1CCCCC1)CC1(CC1)C(=O)N2C` [Compound 173, 4-(9′-cyclohexyl-5′-methyl-6′-oxo-5′,6′,8′,9′-tetrahydrospiro[cyclopropane-1,7′-pyrimido[4,5-b][1,4]diazepine]-2′-ylamino)-3-methoxy-N-(1-methylazetidin-3-yl)benzamide], under setting [1], the IC50 is 1 to 2.51 nM.

`COc1cc(C(=O)NC[C@H]2CCCN2)ccc1Nc1ncc2c(n1)N(C1CCCC1)CCC(=O)N2C` [Compound 62, (R)-4-(9-cyclopentyl-5-methyl-6-oxo-6,7,8,9-tetrahydro-5H-pyrimido[4,5-b][1,4]diazepin-2-ylamino)-3-methoxy-N-(pyrrolidin-2-ylmethyl)benzamide]: the IC50 under setting [1] was more than 10 nM.

`C=CCC1CN(C2CCCCC2)c2nc(Nc3ccc(C(=O)N[C@H]4CCN(C)C4)cc3OC)ncc2N(C)C1=O` (stereo partly drawn) [Compound 229, 4-(7-allyl-9-cyclohexyl-5-methyl-6-oxo-6,7,8,9-tetrahydro-5H-pyrimido[4,5-b][1,4]diazepin-2-ylamino)-3-methoxy-N-((S)-1-methylpyrrolidin-3-yl)benzamide]: the IC50 under setting [1] is 1 to 2.51 nM.

On to `C=CC[C@H]1CN(C2CCCC2)c2nc(Nc3ccc(C(=O)N[C@H]4CCCN(C)C4)cc3OC)ncc2N(C)C1=O` [Compound 198, 4-((S)-7-allyl-9-cyclopentyl-5-methyl-6-oxo-6,7,8,9-tetrahydro-5H-pyrimido[4,5-b][1,4]diazepin-2-ylamino)-3-methoxy-N-((S)-1-methylpiperidin-3-yl)benzamide], for which the IC50 under setting [1] is less than 1 nM.

With `CNCCNC(=O)c1ccc(Nc2ncc3c(n2)N(C2CCCC2)CCC(=O)N3C)c(OC)c1` [Compound 59, 4-(9-cyclopentyl-5-methyl-6-oxo-6,7,8,9-tetrahydro-5H-pyrimido[4,5-b][1,4]diazepin-2-ylamino)-3-methoxy-N-(2-(methylamino)ethyl)benzamide], the IC50 under setting [1] was more than 10 nM.

As to `COc1cc(C(=O)N[C@H]2CCCN(C)C2)ccc1Nc1ncc2c(n1)N(C1CCCC1)CCC(=O)N2C` [Compound 54, (S)-4-(9-cyclopentyl-5-methyl-6-oxo-6,7,8,9-tetrahydro-5H-pyrimido[4,5-b][1,4]diazepin-2-ylamino)-3-methoxy-N-(1-methylpiperidin-3-yl)benzamide], under setting [1], the IC50 was 3.16 to 10 nM.

With `CONC(=O)c1ccc(Nc2ncc3c(n2)N(C2CCCC2)CC(C)(C)C(=O)N3C)c(OC)c1` [Compound 102, 4-(9-cyclopentyl-5,7,7-trimethyl-6-oxo-6,7,8,9-tetrahydro-5H-pyrimido[4,5-b][1,4]diazepin-2-ylamino)-N,3-dimethoxybenzamide], the IC50 under setting [1] is less than 1 nM.

With `COc1cc(C(=O)NC2CCNCC2)ccc1Nc1ncc2c(n1)N(C1CCCC1)CCC(=O)N2C` [Compound 56, 4-(9-cyclopentyl-5-methyl-6-oxo-6,7,8,9-tetrahydro-5H-pyrimido[4,5-b][1,4]diazepin-2-ylamino)-3-methoxy-N-(piperidin-4-yl)benzamide], the IC50 under setting [1] is more than 10 nM.

Regarding `C=CC[C@H]1CN(C2CCCC2)c2nc(Nc3ccc(C(=O)N[C@H]4CCNC4)cc3OC)ncc2N(C)C1=O` [Compound 203, 4-((S)-7-allyl-9-cyclopentyl-5-methyl-6-oxo-6,7,8,9-tetrahydro-5H-pyrimido[4,5-b][1,4]diazepin-2-ylamino)-3-methoxy-N-((S)-pyrrolidin-3-yl)benzamide], the IC50 under setting [1] was 1 to 2.51 nM.

With `COc1cc(C(=O)NC2CCN(C)CC2)ccc1Nc1ncc2c(n1)N(C1CCCCC1)CC1(CC1)C(=O)N2C` [Compound 169, 4-(9′-cyclohexyl-5′-methyl-6′-oxo-5′,6′,8′,9′-tetrahydrospiro[cyclopropane-1,7′-pyrimido[4,5-b][1,4]diazepine]-2′-ylamino)-3-methoxy-N-(1-methylpiperidin-4-yl)benzamide], the IC50 under setting [1] is 1 to 2.51 nM.

With `COc1cc(C(=O)O)ccc1Nc1ncc2c(n1)N(C1CCCC1)CC(C)(C)C(=O)N2C` [Compound 85, 4-(9-Cyclopentyl-5,7,7-trimethyl-6-oxo-6,7,8,9-tetrahydro-5H-pyrimido[4,5-b][1,4]diazepin-2-ylamino)-3-methoxybenzoic Acid], where the note is “HT-29, 72 h”, the IC50 is 3.16 to 10 nM.
